Reference: PMC4147353 (Nature Communications, 2014)

Columns and labels:
USP7 = USP7 (Homo sapiens, UniProt Q93009); test: MALDI-TOF DUB assay, inhibitor IC50 on USP7; assay type: biochemical; details: for potency for USP7 relative to the second most sensitive DUB on the panel (USP21): from IC50 values
panel of 32 DUBs = assay type: biochemical, human
[1] = assay type: physicochemical; details: 1 mM DTT or 0.5 mM TCEP, 30 °C for 1 h, DUB assay conditions; data not shown

Chain of USP7 (Q93009 whole entry): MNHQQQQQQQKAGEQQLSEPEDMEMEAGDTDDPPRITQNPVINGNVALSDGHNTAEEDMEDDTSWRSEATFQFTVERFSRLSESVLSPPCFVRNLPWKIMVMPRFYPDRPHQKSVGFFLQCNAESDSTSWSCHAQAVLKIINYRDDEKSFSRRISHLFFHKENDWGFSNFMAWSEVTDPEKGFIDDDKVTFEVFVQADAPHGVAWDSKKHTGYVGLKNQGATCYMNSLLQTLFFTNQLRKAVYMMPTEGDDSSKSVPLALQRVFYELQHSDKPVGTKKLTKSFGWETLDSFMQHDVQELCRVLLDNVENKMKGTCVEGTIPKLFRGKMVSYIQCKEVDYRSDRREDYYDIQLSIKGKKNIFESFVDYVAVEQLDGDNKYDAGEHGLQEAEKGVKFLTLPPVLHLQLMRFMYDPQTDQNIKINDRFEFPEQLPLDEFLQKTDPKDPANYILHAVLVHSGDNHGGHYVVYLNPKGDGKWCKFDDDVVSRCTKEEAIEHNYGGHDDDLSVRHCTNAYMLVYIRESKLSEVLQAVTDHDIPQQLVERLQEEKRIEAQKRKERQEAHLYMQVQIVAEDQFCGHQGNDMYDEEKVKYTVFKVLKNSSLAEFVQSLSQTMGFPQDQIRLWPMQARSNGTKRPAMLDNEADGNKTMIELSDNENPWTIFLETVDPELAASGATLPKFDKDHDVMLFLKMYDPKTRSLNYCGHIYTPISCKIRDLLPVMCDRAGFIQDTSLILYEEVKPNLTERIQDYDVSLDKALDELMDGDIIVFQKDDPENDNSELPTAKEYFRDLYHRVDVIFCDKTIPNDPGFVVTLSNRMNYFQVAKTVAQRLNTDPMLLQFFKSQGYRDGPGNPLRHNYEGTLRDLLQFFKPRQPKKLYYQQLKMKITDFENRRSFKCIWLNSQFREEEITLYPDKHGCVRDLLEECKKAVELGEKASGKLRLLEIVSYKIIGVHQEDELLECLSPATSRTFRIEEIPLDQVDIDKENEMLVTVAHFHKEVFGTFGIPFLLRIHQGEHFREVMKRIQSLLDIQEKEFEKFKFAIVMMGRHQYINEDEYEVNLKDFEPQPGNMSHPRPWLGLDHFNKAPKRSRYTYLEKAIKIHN

Cc1ccc(S(=O)(=O)/C=C/C#N)cc1 [BAY 11-7082]
potency for USP7 relative to the second most sensitive DUB on the panel (USP21) (USP7): five- to eightfold higher potency

N#Cc1nc2c(nc1C#N)-c1ccc(Cl)cc1C2=O [HBX 41,108]
number of DUBs inhibited more than 70% (panel of 32 DUBs; of the 32 DUBs tested, at 5 μM): 25

Cc1ccc(S(=O)(=O)c2ccc([N+](=O)[O-])o2)cc1 [NSC 697923]
potency for USP7 relative to the second most sensitive DUB on the panel (USP21) (USP7): five- to eightfold higher potency
potency for USP7 relative to HBX 41,108 (USP7; ratio of IC50 values, 0.08 μM versus 5.97 μM): 70 fold

N#CSc1cc(SC#N)c(N)nc1N [PR-619]
number of DUBs inhibited (panel of 32 DUBs; of the 32 tested DUBs): 27

CCC[C@H](NC(=O)/C(C#N)=C/c1cccc(Br)n1)c1ccccc1 [WP1130]
reaction with reducing agents DTT and TCEP [1]: significantly reacted with both DTT and TCEP
